Literature values as cited in US20240148714A1, “Triple Negative Breast Cancer Treatment Method” (Exelixis, Inc., priority 2016, published 2024).

System: mTNBC
Settings: bevacizumab and onartuzumab combined, with paclitaxel; mTNBC patients without previous paclitaxel for metastatic disease; cited from earlier work

| Substance | clinical benefit |
| --- | --- |
| bevacizumab | no clinical benefit |
| onartuzumab | no clinical benefit |
